Data published in ChEMBL document CHEMBL5226325, “Optimization of a Screening Hit toward M2912, an Oral Tankyrase Inhibitor with Antitumor Activity in Colorectal Cancer Models” (J Med Chem, 2021).

Target: Protein mono-ADP-ribosyltransferase PARP14 (Homo sapiens, UniProt Q460N5)
Assay: Inhibition of N-terminal GST/6xHis/TEV-tagged human recombinant PARP14 (1470 to 1801 residues) expressed in Sf9 insect cells by chemiluminescence assay

Protein mono-ADP-ribosyltransferase PARP14, sequence (Q460N5 whole entry, the tested form may be a part): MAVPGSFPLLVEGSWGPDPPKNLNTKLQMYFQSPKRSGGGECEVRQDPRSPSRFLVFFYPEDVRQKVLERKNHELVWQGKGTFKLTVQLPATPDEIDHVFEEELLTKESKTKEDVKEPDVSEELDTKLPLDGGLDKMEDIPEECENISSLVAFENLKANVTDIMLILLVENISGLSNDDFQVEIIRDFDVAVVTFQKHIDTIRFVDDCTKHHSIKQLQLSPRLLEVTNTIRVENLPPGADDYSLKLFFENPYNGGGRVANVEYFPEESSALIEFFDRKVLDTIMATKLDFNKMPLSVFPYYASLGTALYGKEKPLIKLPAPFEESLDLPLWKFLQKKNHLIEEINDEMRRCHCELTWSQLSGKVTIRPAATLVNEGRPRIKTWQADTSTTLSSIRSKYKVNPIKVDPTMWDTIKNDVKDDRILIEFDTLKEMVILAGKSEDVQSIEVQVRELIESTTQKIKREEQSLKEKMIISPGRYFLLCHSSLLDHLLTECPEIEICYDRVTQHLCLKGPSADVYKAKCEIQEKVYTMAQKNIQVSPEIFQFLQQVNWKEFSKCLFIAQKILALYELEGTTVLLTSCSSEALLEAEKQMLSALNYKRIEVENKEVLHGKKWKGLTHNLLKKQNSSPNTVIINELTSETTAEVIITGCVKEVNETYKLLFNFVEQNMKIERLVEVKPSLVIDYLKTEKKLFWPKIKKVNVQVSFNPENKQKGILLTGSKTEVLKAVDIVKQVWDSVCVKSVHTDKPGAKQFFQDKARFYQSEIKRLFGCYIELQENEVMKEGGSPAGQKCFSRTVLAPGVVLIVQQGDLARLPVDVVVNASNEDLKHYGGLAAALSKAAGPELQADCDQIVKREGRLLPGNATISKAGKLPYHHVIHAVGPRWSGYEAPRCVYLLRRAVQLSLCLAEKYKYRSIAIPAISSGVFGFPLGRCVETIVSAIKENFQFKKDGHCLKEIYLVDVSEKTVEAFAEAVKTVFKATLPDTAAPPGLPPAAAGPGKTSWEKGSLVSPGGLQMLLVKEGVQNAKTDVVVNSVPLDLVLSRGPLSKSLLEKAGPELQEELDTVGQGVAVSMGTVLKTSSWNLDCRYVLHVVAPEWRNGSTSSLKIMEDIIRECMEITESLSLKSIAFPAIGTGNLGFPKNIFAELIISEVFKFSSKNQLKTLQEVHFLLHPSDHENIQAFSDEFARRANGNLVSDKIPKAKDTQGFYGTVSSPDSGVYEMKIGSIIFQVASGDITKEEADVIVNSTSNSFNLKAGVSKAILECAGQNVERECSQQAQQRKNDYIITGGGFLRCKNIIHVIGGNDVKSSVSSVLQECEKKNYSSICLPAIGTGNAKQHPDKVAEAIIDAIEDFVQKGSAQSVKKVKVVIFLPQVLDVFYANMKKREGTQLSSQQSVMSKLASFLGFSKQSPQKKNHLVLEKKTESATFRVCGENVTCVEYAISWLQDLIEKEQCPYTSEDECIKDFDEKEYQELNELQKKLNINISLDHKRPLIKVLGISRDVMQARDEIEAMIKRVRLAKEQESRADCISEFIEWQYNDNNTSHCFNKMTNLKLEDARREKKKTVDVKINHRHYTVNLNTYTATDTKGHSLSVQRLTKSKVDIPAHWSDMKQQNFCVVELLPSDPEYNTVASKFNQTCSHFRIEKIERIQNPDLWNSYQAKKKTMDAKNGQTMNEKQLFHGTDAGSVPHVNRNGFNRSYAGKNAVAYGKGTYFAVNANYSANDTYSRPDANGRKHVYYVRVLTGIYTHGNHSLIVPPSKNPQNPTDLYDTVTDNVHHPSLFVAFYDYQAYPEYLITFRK

For Cc1ccc2c(=O)[nH]c(-c3ccc(C(C)(C)O)cc3)cn12, the IC50 was greater than 10 µM.
